What was measured:
[1] = Long-term/accelerated stability (sealed, 25° C./60% RH and 40° C./75% RH); conditions: for chemical stability / physical stability: 25° C./60% RH and 40° C./75% RH
[2] = DVS (dynamic vapor sorption) hygroscopicity testing; format: physicochemical; conditions: for hygroscopic weight gain under normal storage conditions / hygroscopic weight gain under accelerated experimental conditions / hygroscopic weight gain under extreme conditions: DVS; for hygroscopic weight gain under normal storage conditions: 25° C. and 60% RH; for hygroscopic weight gain under accelerated experimental conditions: 70% RH; for hygroscopic weight gain under extreme conditions: 90% RH; for crystal form re-identification after DVS testing: XRPD after DVS
Method: DVS refers to dynamic vapor sorption: Surface Measurement Systems instrinsic was adopted; the humidity started at 50%, the humidity range investigated was 0%-95%, and the humidity was increased in increments of 10%; the criterion was that each gradient mass change dM/dT is less than 0.002%, TMAX 360 min, two cycles.

[3] = Influencing factor stability (open flasks, light, high temperature, high humidity, 30 days)
[4] = 25° C., 60% RH, sealed, 1 month
[5] = 25° C., 60% RH, sealed, 2 months
[6] = 25° C., 60% RH, sealed, 3 months
[7] = 25° C., 60% RH, sealed, 6 months
[8] = 40° C., 75% RH, sealed, 1 month
[9] = 40° C., 75% RH, sealed, 2 months
[10] = 40° C., 75% RH, sealed, 3 months
[11] = 40° C., 75% RH, sealed, 6 months
[12] = Light exposure (4500 Lux), 5 days, open flask
[13] = Light exposure (4500 Lux), 10 days, open flask
[14] = Light exposure (4500 Lux), 30 days, open flask
[15] = light exposure (4500 Lux), 40° C. and 60° C., high humidity RH 75% and 92.5%, 30 days

CCO[C@H]1C[C@H]2CC[C@@](c3ccc(C(=O)O)cc3)(C1)N2Cc1c(OC)cc(C)c2[nH]ccc12.O=C(O)/C=C/C(=O)O [crystal form I of the fumarate, 4-((1S,3S,5R)-3-ethoxy-8-((5-methoxy-7-methyl-1H-indol-4-yl)methyl)-8-azabicyclo[3.2.1]octan-1-yl)benzoic acid-fumarate]
good: chemical stability ([1]; 6 months) | physical stability ([1]; 6 months) | chemical stability [3, 15] | physical stability [3, 15]
99.5%: Purity % ([3]; 60° C., 30 days, open flask) | Purity % [3, 14]
99.8%: Purity % [1, 11] | Purity % ([3]; 60° C., 5 days, open flask)
Crystal form I: Salt form ([1]; Initial) | Salt form ([3]; Initial, 0 days)
about 0.51%: hygroscopic weight gain under normal storage conditions [2]
did not change: crystal form re-identification after DVS testing [2]
99.9%: Purity % [1, 4] | Purity % [1, 7] | Purity % [1, 8] | Purity % [1, 9] | Purity % [1, 10] | Purity % ([3]; 75% RH, 10 days, open flask) | Purity % ([3]; 92.5% RH, 5 days, open flask) | Purity % ([3]; 92.5% RH, 10 days, open flask) | Purity % ([3]; 92.5% RH, 30 days, open flask) | Purity % [3, 13]
about 0.82%: hygroscopic weight gain under extreme conditions [2]
99.7%: Purity % ([3]; 40° C., 5 days, open flask) | Purity % ([3]; 60° C., 10 days, open flask)
White solid: Color and state ([3]; 40° C., 5 days, open flask) | Color and state ([3]; 40° C., 10 days, open flask) | Color and state ([3]; 40° C., 30 days, open flask) | Color and state ([3]; 60° C., 5 days, open flask) | Color and state ([3]; 60° C., 10 days, open flask) | Color and state ([3]; 60° C., 30 days, open flask) | Color and state ([3]; 75% RH, 5 days, open flask) | Color and state ([3]; 75% RH, 10 days, open flask) | Color and state ([3]; 75% RH, 30 days, open flask) | Color and state ([3]; 92.5% RH, 5 days, open flask) | Color and state ([3]; 92.5% RH, 10 days, open flask) | Color and state ([3]; 92.5% RH, 30 days, open flask) | Color and state ([3]; Initial, 0 days) | Color and state [3, 12] | Color and state [3, 13] | Color and state [3, 14]
about 0.60%: hygroscopic weight gain under accelerated experimental conditions [2]
99.3%: Purity % ([3]; 40° C., 30 days, open flask)
100.0%: Purity % [1, 5] | Purity % [1, 6] | Purity % ([1]; Initial) | Purity % ([3]; 75% RH, 5 days, open flask) | Purity % ([3]; 75% RH, 30 days, open flask) | Purity % ([3]; Initial, 0 days) | Purity % [3, 12]
99.6%: Purity % ([3]; 40° C., 10 days, open flask)
No change: Salt form [1, 4] | Salt form [1, 5] | Salt form [1, 6] | Salt form [1, 7] | Salt form [1, 8] | Salt form [1, 9] | Salt form [1, 10] | Salt form [1, 11] | Salt form ([3]; 40° C., 5 days, open flask) | Salt form ([3]; 40° C., 10 days, open flask) | Salt form ([3]; 40° C., 30 days, open flask) | Salt form ([3]; 60° C., 5 days, open flask) | Salt form ([3]; 60° C., 10 days, open flask) | Salt form ([3]; 60° C., 30 days, open flask) | Salt form ([3]; 75% RH, 5 days, open flask) | Salt form ([3]; 75% RH, 10 days, open flask) | Salt form ([3]; 75% RH, 30 days, open flask) | Salt form ([3]; 92.5% RH, 5 days, open flask) | Salt form ([3]; 92.5% RH, 10 days, open flask) | Salt form ([3]; 92.5% RH, 30 days, open flask) | Salt form [3, 12] | Salt form [3, 13] | Salt form [3, 14]

CCO[C@H]1C[C@H]2CC[C@@](c3ccc(C(=O)O)cc3)(C1)N2Cc1c(OC)cc(C)c2[nH]ccc12.Cl [crystal form II of the hydrochloride, 4-((1S,3S,5R)-3-ethoxy-8-((5-methoxy-7-methyl-1H-indol-4-yl)methyl)-8-azabicyclo[3.2.1]octan-1-yl)benzoic acid-hydrochloride]
99.4%: Purity % ([3]; 40° C., 5 days, open flask) | Purity % ([3]; 60° C., 5 days, open flask)
99.8%: Purity % [3, 12]
98.8%: Purity % ([3]; 60° C., 10 days, open flask)
good: chemical stability ([1]; 6 months) | physical stability ([1]; 6 months) | chemical stability under high humidity conditions ([3]; high humidity conditions only, 30 days) | physical stability [3, 15]
about 5.00%: hygroscopic weight gain under extreme conditions [2]
99.3%: Purity % ([3]; 40° C., 10 days, open flask)
White solid: Color and state ([3]; 40° C., 5 days, open flask) | Color and state ([3]; 40° C., 10 days, open flask) | Color and state ([3]; 40° C., 30 days, open flask) | Color and state ([3]; 60° C., 5 days, open flask) | Color and state ([3]; 60° C., 10 days, open flask) | Color and state ([3]; 60° C., 30 days, open flask) | Color and state ([3]; 75% RH, 5 days, open flask) | Color and state ([3]; 75% RH, 10 days, open flask) | Color and state ([3]; 75% RH, 30 days, open flask) | Color and state ([3]; 92.5% RH, 5 days, open flask) | Color and state ([3]; 92.5% RH, 10 days, open flask) | Color and state ([3]; 92.5% RH, 30 days, open flask) | Color and state ([3]; Initial, 0 days) | Color and state [3, 12] | Color and state [3, 13] | Color and state [3, 14]
100.0%: Purity % [1, 4] | Purity % [1, 5] | Purity % [1, 6] | Purity % [1, 7] | Purity % [1, 8] | Purity % [1, 9] | Purity % ([1]; Initial) | Purity % ([3]; 75% RH, 5 days, open flask) | Purity % ([3]; 75% RH, 10 days, open flask) | Purity % ([3]; 75% RH, 30 days, open flask) | Purity % ([3]; 92.5% RH, 5 days, open flask) | Purity % ([3]; 92.5% RH, 10 days, open flask) | Purity % ([3]; 92.5% RH, 30 days, open flask) | Purity % ([3]; Initial, 0 days)
99.9%: Purity % [1, 10] | Purity % [1, 11]
did not change: crystal form re-identification after DVS testing [2]
97.4%: Purity % ([3]; 60° C., 30 days, open flask)
about 3.93%: hygroscopic weight gain under normal storage conditions [2]
No change: Salt form [1, 6] | Salt form [1, 7] | Salt form ([3]; 40° C., 5 days, open flask) | Salt form ([3]; 40° C., 10 days, open flask) | Salt form ([3]; 40° C., 30 days, open flask) | Salt form ([3]; 60° C., 5 days, open flask) | Salt form ([3]; 60° C., 10 days, open flask) | Salt form ([3]; 60° C., 30 days, open flask) | Salt form ([3]; 75% RH, 5 days, open flask) | Salt form ([3]; 75% RH, 10 days, open flask) | Salt form ([3]; 75% RH, 30 days, open flask) | Salt form ([3]; 92.5% RH, 5 days, open flask) | Salt form ([3]; 92.5% RH, 10 days, open flask) | Salt form ([3]; 92.5% RH, 30 days, open flask) | Salt form [3, 12] | Salt form [3, 13] | Salt form [3, 14]
99.2%: Purity % [3, 13]
96.5%: Purity % [3, 14]
98.6%: Purity % ([3]; 40° C., 30 days, open flask)
Crystal form: Salt form ([3]; Initial, 0 days)
about 4.28%: hygroscopic weight gain under accelerated experimental conditions [2]

— patent US20250382287A1, “PHARMACEUTICALLY ACCEPTABLE SALT AND CRYSTAL FORM OF NITROGEN-CONTAINING BRIDGE HETEROCYCLIC DERIVATIVE, AND METHOD FOR PREPARING SAME” (JIANGSU HENGRUI PHARMACEUTICALS CO., LTD., priority 2022, published 2025)
